According to ChEMBL document CHEMBL3526047, “Excretion, metabolism, and pharmacokinetics of 1-(8-(2-chlorophenyl)-9-(4-chlorophenyl)-9H-purin-6-yl)-4-(ethylamino)piperidine-4-carboxamide, a selective cannabinoid receptor antagonist, in healthy male volunteers” (Drug Metab Dispos, 2012):

What was measured:
[1] = Drug excretion in urine of healthy obese adult male human treated with [14C]CP-945,598 at 25 mg, po administered as single dose after 0 to 384 hrs hrs by HPLC method; format: ADME, organism-based; conditions: in vivo
[2] = Drug excretion in feces of healthy obese adult male human treated with [14C]CP-945,598 at 25 mg, po administered as single dose after 0 to 384 hrs hrs by HPLC method; format: ADME, organism-based; conditions: in vivo
Homo sapiens [3] = experiment: Total drug excretion in healthy obese adult male human treated with [14C]CP-945,598 at 25 mg, po administered as single dose after 0 to 384 hrs hrs by HPLC method; format: ADME, organism-based; conditions: in vivo
Cytochrome P450 3A4 = Cytochrome P450 3A4 (Homo sapiens, UniProt P08684); experiment: Drug metabolism assessed as human recombinant CYP3A4-mediated metabolite formation after 60 mins by HPLC method; format: ADME; conditions: recombinant enzyme, 1 h
Sequence of Cytochrome P450 3A4 (P08684 whole entry): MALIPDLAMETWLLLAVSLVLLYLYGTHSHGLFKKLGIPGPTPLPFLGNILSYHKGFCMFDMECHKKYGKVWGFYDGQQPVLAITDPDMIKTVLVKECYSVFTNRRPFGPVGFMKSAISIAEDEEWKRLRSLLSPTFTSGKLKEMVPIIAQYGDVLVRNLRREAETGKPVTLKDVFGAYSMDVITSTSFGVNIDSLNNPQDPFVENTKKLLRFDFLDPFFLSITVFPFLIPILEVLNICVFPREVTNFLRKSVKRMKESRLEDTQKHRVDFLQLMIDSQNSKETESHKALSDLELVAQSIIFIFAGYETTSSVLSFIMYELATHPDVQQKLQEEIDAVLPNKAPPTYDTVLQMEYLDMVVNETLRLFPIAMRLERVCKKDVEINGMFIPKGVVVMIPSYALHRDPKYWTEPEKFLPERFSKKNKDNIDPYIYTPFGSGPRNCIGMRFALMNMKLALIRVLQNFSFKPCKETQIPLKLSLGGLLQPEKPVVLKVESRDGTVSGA

Serum [4] = experiment: Drug level in serum of healthy obese adult male human treated with [14C]CP-945,598 at 25 mg, po administered as single dose after 48 hrs by HPLC method; format: ADME, organism-based; conditions: in vivo
Homo sapiens [5] = experiment: AUC (0 to last) in healthy obese adult male human treated with [14C]CP-945,598 at 25 mg, po administered as single dose; format: ADME, organism-based, Plasma; parameters: dose 25 mg, route oral, time 0 - last; conditions: in vivo
Homo sapiens [6] = experiment: Cmax in healthy obese adult male human treated with [14C]CP-945,598 at 25 mg, po administered as single dose; format: ADME, organism-based; parameters: dose 25 mg, route oral; conditions: in vivo
Serum [7] = experiment: Drug level in serum of healthy obese adult male human treated with [14C]CP-945,598 at 25 mg, po administered as single dose after 4 hrs by HPLC method; format: ADME, organism-based; conditions: in vivo
Serum [8] = experiment: Drug level in serum of healthy obese adult male human treated with [14C]CP-945,598 at 25 mg, po administered as single dose after 12 hrs by HPLC method; format: ADME, organism-based; conditions: in vivo
Serum [9] = experiment: Drug level in serum of healthy obese adult male human treated with [14C]CP-945,598 at 25 mg, po administered as single dose after 24 hrs by HPLC method; format: ADME, organism-based; conditions: in vivo
Homo sapiens [10] = experiment: Terminal elimination half life in healthy obese adult male human treated with [14C]CP-945,598 at 25 mg, po administered as single dose; format: ADME, organism-based; conditions: in vivo
Homo sapiens [11] = experiment: AUC (0 to infinity) in healthy obese adult male human treated with [14C]CP-945,598 at 25 mg, po administered as single dose; format: ADME, organism-based, Plasma; parameters: dose 25 mg, time infinity, route oral; conditions: in vivo
Homo sapiens [12] = experiment: Tmax in healthy obese adult male human treated with [14C]CP-945,598 at 25 mg, po administered as single dose; format: ADME, organism-based; conditions: in vivo
Serum [13] = experiment: Total drug level in serum of healthy obese adult male human treated with [14C]CP-945,598 at 25 mg, po administered as single dose after 48 hrs by HPLC method; format: ADME, organism-based; conditions: in vivo
Serum [14] = experiment: AUC in serum of healthy obese adult male human treated with [14C]CP-945,598 at 25 mg, po administered as single dose after 48 hrs by HPLC method; format: ADME, organism-based; parameters: time < 48 hr, dose 25 mg, route oral; conditions: in vivo

Row | SMILES | Drug excretion [1] [%] | Drug excretion [2] [%] | Drug excretion (Homo sapiens [3]) [%] | Drug metabolism (Cytochrome P450 3A4) [%] | Drug uptake (Serum [4]) [ngequiv/g] | AUClast (Homo sapiens [5]) [ng·h/mL] | Cmax (Homo sapiens [6]) [ng/mL] | Drug uptake (Serum [7]) [ngequiv/g] | Drug uptake (Serum [8]) [ngequiv/g] | Drug uptake (Serum [9]) [ngequiv/g] | beta t1/2 (Homo sapiens [10]) [h] | AUC (Homo sapiens [11]) [ng·h/mL] | Tmax (Homo sapiens [12]) [h] | Drug uptake (Serum [13]) [ngequiv/g] | AUC (Serum [14]) [ngequiv.hr/g]
1 | NC1(C(=O)O)CCN(c2ncnc3c2nc(-c2ccccc2Cl)n3-c2ccc(Cl)cc2)CC1 | 5.4 | 30.9 | 36.3 | – | – | – | – | – | – | – | – | – | – | – | –
2 | NC(=O)C1(NO)CCN(c2ncnc3c2nc(-c2ccccc2Cl)n3-c2ccc(Cl)cc2)CC1 | 0.6 | 1.2 | 1.8 | 8.8 | – | – | – | – | – | – | – | – | – | – | –
3 | NC(=O)C1(N)CCN(c2ncnc3c2nc(-c2ccccc2Cl)n3-c2ccc(Cl)cc2)CC1 | 2.3 | 4.5 | 6.8 | 48.1 | 23.1 | 3730 | 42 | 28.4 | 38.1 | 31.8 | 139 | 3970 | 6.8 | 57.3 | 1401
4 | NC(=O)C1(NC2O[C@H](CO)[C@@H](O)[C@H]2O)CCN(c2ncnc3c2nc(-c2ccccc2Cl)n3-c2ccc(Cl)cc2)CC1 (stereo partly specified) | – | 6.3 | 6.3 | – | – | – | – | – | – | – | – | – | – | – | –
5 | O=C1CCN(c2ncnc3c2nc(-c2ccccc2Cl)n3-c2ccc(Cl)cc2)CC1 | – | – | – | 26.9 | 9.7 | – | – | 4.5 | 3.6 | 7.2 | – | – | – | 12.6 | 309
